Results taken from patent US20220218630A1, “METHODS AND FORMULATIONS FOR TREATING VISION DISORDERS” (JeniVision Inc., priority 2019, published 2022).

Tests used:
[1] = Ocular bioavailability following application to the periorbital skin of cynomolgus monkeys (LC/MS/MS); assay type: in vivo; details: for tiotropium level in ciliary muscle / tiotropium level in plasma: 208 μg to periorbital skin of one eye
Method: The animals were euthanized at predetermined time points post-dosing: 1, 2, 4, 24 hours. A blood sample and ocular tissue specimens were then taken and prepared for LC/MS/MS analysis.

[2] = system: monkey longitudinal ciliary muscle; test: Isolated monkey longitudinal ciliary muscle preparation contracted by carbachol (tissue bath); assay type: cell-based; details: for contractile effects of a further application of carbachol following wash-out: after wash-out of drug, carbachol re-applied; for effect on ciliary muscle tone: drug added cumulatively 10^−8 M to 10^−5 M
Method: A total of 4 longitudinal strips of ciliary muscle were obtained from one monkey eye. Four tissue baths were used concurrently for each experiment. The monkey ciliary muscle preparations were incubated in Krebs bicarbonate buffer, aerated with 95% O2/5% CO2, containing 10^−6 M indomethacin. The preparations were placed under 200 mg tension with adjustment and allowed to equilibrate for 30 minutes. The temperature was maintained at 37° C. throughout the experiment. After equilibration, the four tissue baths received (50 μL×10^−3M) 10^−6 M carbachol (sufficient to produce a mid-level 40-60% maximal response). If 10^−6 M carbachol was insufficient to cause a meaningful contraction, then (50 μL×3×10^−3M) 3×10^−6 M or (50 μL×10^−2M) 10^−5M was used. The contractile response was allowed to become stable. Tissue tension was recorded on a multi-channel electrophysiological recorder.
When cumulative addition of the drug solutions was completed, the drugs were washed-out by flushing through with buffer three times at a selected volume. Four tissue baths again received 10^−6 M (or selected concentration) carbachol and a stable contractile response was established.

[3] = carbachol pre-contracted preparation

Compound | access to the ciliary muscle ([1]; cynomolgus monkey, in vivo) | systemic exposure ([1]; cynomolgus monkey, in vivo) | contractile effects of a further application of carbachol following wash-out [2] | effect on ciliary muscle tone [2, 3] | tiotropium level in ciliary muscle ([1]; 1 hr post-dosing) [nM] | tiotropium level in plasma ([1]; 1 hr post-dosing) [nM] | tiotropium level in ciliary muscle ([1]; 2 hr post-dosing) [nM] | tiotropium level in plasma ([1]; 2 hr post-dosing) | tiotropium level in ciliary muscle ([1]; 4 hr post-dosing) [nM] | tiotropium level in plasma ([1]; 4 hr post-dosing) | tiotropium level in ciliary muscle ([1]; 24 hr post-dosing) [nM] | tiotropium level in plasma ([1]; 24 hr post-dosing) | systemic exposure ([1]; periorbital skin application, non-optimized aqueous formulations) | magnitude of relaxation ([2]; carbachol pre-contracted preparation, tiotropium compared with salmeterol)
OCc1cc(C(O)CNCCCCCCOCCCCc2ccccc2)ccc1O (stereo not shown) [salmeterol] | pharmacologically active concentrations | absent | blunted | dose-related decrease |  |  |  |  |  |  |  |  |  | 
C[N+]1(C)[C@@H]2C[C@@H](OC(=O)C(O)(c3cccs3)c3cccs3)C[C@H]1[C@@H]1O[C@@H]12 [tiotropium] |  |  | blunted | dose-related decrease | 49 | 4.5 | 77 | BLQ | 5.4 | BLQ | 0 | BLQ | minimal | greater than that recorded for salmeterol
